Measured values reported in US6689773B2, “Uracil substituted phenyl sulfamoyl carboxamides” (BASF Aktiengesellschaft, priority 2000, dated 2004).

How the values were obtained:
Assay type in all cases: in vivo
[1] = test system: ABUTH, Velvetleaf, Abutilon theophrasti, Medic.; assay: Postemergence herbicidal evaluation (Example 147); conditions: rating scale 0-9, two to three weeks after treatment
In short: (§1)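 Spray carrier: 80/20 acetone/water, 1.0% SUN-IT II methylated seed oil; rate about 0.016 to 0.032 kg/ha at 40 psi onto two-week seedlings. Assessment: plant stand, vigor, chlorosis and malformation scored 0-9 versus control, two to three weeks after treatment.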

[2] = test system: ALOMY, Blackgrass, Alopecurus myosuroides; assay: Postemergence herbicidal evaluation (Example 147); conditions: rating scale 0-9, two to three weeks after treatment
In short: as §1

[3] = test system: AMBEL, Ragweed, Common, Ambrosia artemiisifolia, L.; assay: Postemergence herbicidal evaluation (Example 147); conditions: rating scale 0-9, two to three weeks after treatment
In short: as §1

[4] = test system: CHEAL, Lambsquarters, Chenopodium album, L. Common; assay: Postemergence herbicidal evaluation (Example 147); conditions: rating scale 0-9, two to three weeks after treatment
In short: as §1

[5] = test system: DIGSA, Crabgrass, (Hairy) L, Digitaria sanguinalis, (L)Scop; assay: Postemergence herbicidal evaluation (Example 147); conditions: rating scale 0-9, two to three weeks after treatment
In short: as §1

[6] = test system: ECHCG, Barnyardgrass, Echinochloa crusgalli, (L.)Beau; assay: Postemergence herbicidal evaluation (Example 147); conditions: rating scale 0-9, two to three weeks after treatment
In short: as §1

[7] = test system: GLXMA, Soybean, Glycine max, (L.) Merr.; assay: Postemergence herbicidal evaluation (Example 147); conditions: rating scale 0-9, two to three weeks after treatment
In short: as §1

[8] = test system: IPOHE, Morningglory, Ivyleaf, Ipomoea hederacea, (L)Jacq.; assay: Postemergence herbicidal evaluation (Example 147); conditions: rating scale 0-9, two to three weeks after treatment
In short: as §1

[9] = test system: SETVI, Green foxtail, Setaria viridis, (L.)Beau; assay: Postemergence herbicidal evaluation (Example 147); conditions: rating scale 0-9, two to three weeks after treatment
In short: as §1

[10] = test system: TRZAW, Winter wheat, Tritium Aestivum, L. (Winter); assay: Postemergence herbicidal evaluation (Example 147); conditions: rating scale 0-9, two to three weeks after treatment
In short: as §1

[11] = test system: XANST, Cocklebur, Xanthium strumariam; assay: Postemergence herbicidal evaluation (Example 147); conditions: rating scale 0-9, two to three weeks after treatment
In short: as §1

[12] = test system: ZEAMX, Field corn, Zea mays L.; assay: Postemergence herbicidal evaluation (Example 147); conditions: rating scale 0-9, two to three weeks after treatment
In short: as §1

[13] = test system: ABUTH, Velvetleaf, Abutilon theophrasti, Medic.; assay: Preemergence herbicidal evaluation (Example 148); conditions: rating scale 0-9, two to four weeks after treatment
In short: (§2)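 Following sowing, cups received a soil spray of the compound dissolved in aqueous acetone, dosed to about 0.125 to 0.250 kg per hectare. Growth continued in the greenhouse under routine care before visual scoring at two to four weeks.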

[14] = test system: ALOMY, Blackgrass, Alopecurus myosuroides; assay: Preemergence herbicidal evaluation (Example 148); conditions: rating scale 0-9, two to four weeks after treatment
In short: as §2

[15] = test system: AMBEL, Ragweed, Common, Ambrosia artemiisifolia, L.; assay: Preemergence herbicidal evaluation (Example 148); conditions: rating scale 0-9, two to four weeks after treatment
In short: as §2

[16] = test system: CHEAL, Lambsquarters, Chenopodium album, L. Common; assay: Preemergence herbicidal evaluation (Example 148); conditions: rating scale 0-9, two to four weeks after treatment
In short: as §2

[17] = test system: DIGSA, Crabgrass, (Hairy) L, Digitaria sanguinalis, (L)Scop; assay: Preemergence herbicidal evaluation (Example 148); conditions: rating scale 0-9, two to four weeks after treatment
In short: as §2

[18] = test system: ECHCG, Barnyardgrass, Echinochloa crusgalli, (L.)Beau; assay: Preemergence herbicidal evaluation (Example 148); conditions: rating scale 0-9, two to four weeks after treatment
In short: as §2

[19] = test system: GLXMA, Soybean, Glycine max, (L.) Merr.; assay: Preemergence herbicidal evaluation (Example 148); conditions: rating scale 0-9, two to four weeks after treatment
In short: as §2

[20] = test system: IPOHE, Morningglory, Ivyleaf, Ipomoea hederacea, (L)Jacq.; assay: Preemergence herbicidal evaluation (Example 148); conditions: rating scale 0-9, two to four weeks after treatment
In short: as §2

[21] = test system: SETVI, Green foxtail, Setaria viridis, (L.)Beau; assay: Preemergence herbicidal evaluation (Example 148); conditions: rating scale 0-9, two to four weeks after treatment
In short: as §2

[22] = test system: TRZAW, Winter wheat, Tritium Aestivum, L. (Winter); assay: Preemergence herbicidal evaluation (Example 148); conditions: rating scale 0-9, two to four weeks after treatment
In short: as §2

[23] = test system: XANST, Cocklebur, Xanthium strumariam; assay: Preemergence herbicidal evaluation (Example 148); conditions: rating scale 0-9, two to four weeks after treatment
In short: as §2

[24] = test system: ZEAMX, Field corn, Zea mays L.; assay: Preemergence herbicidal evaluation (Example 148); conditions: rating scale 0-9, two to four weeks after treatment
In short: as §2

3-(5-(N,N-Dimethyl)sulfamoylcarboxamido-4-chloro-2-fluorophenyl)-1,2,3,4-dihydro-6-trifluoromethylpyrimidin-2,4-dione [Example 54]
Postemergence herbicidal rating ABUTH ([1]; rate 0.016 kg/ha): 9.0 | Postemergence herbicidal rating ABUTH ([1]; rate 0.032 kg/ha): 9.0 | Postemergence herbicidal rating ALMOY ([2]; rate 0.016 kg/ha): 2.0 | Postemergence herbicidal rating ALMOY ([2]; rate 0.032 kg/ha): 2.0 | Postemergence herbicidal rating AMBEL ([3]; rate 0.016 kg/ha): 9.0 | Postemergence herbicidal rating AMBEL ([3]; rate 0.032 kg/ha): 9.0 | Postemergence herbicidal rating CHEAL ([4]; rate 0.016 kg/ha): 9.0 | Postemergence herbicidal rating CHEAL ([4]; rate 0.032 kg/ha): 9.0 | Postemergence herbicidal rating DIGSA ([5]; rate 0.016 kg/ha): 5.0 | Postemergence herbicidal rating DIGSA ([5]; rate 0.032 kg/ha): 6.0 | Postemergence herbicidal rating ECHCG ([6]; rate 0.016 kg/ha): 6.0 | Postemergence herbicidal rating ECHCG ([6]; rate 0.032 kg/ha): 8.0 | Postemergence herbicidal rating GLXMA ([7]; rate 0.016 kg/ha): 8.0 | Postemergence herbicidal rating GLXMA ([7]; rate 0.032 kg/ha): 8.5 | Postemergence herbicidal rating IPOHE ([8]; rate 0.016 kg/ha): 9.0 | Postemergence herbicidal rating IPOHE ([8]; rate 0.032 kg/ha): 9.0 | Postemergence herbicidal rating SETVI ([9]; rate 0.016 kg/ha): 7.0 | Postemergence herbicidal rating SETVI ([9]; rate 0.032 kg/ha): 7.0 | Postemergence herbicidal rating TRZAW ([10]; rate 0.016 kg/ha): 5.5 | Postemergence herbicidal rating TRZAW ([10]; rate 0.032 kg/ha): 6.0 | Postemergence herbicidal rating XANST ([11]; rate 0.016 kg/ha): 9.0 | Postemergence herbicidal rating XANST ([11]; rate 0.032 kg/ha): 9.0 | Postemergence herbicidal rating ZEAMX ([12]; rate 0.016 kg/ha): 6.5 | Postemergence herbicidal rating ZEAMX ([12]; rate 0.032 kg/ha): 7.5 | Preemergence herbicidal rating ABUTH ([13]; rate 0.125 kg/ha): 9.0 | Preemergence herbicidal rating ABUTH ([13]; rate 0.25 kg/ha): 9.0 | Preemergence herbicidal rating ALMOY ([14]; rate 0.125 kg/ha): 0.0 | Preemergence herbicidal rating ALMOY ([14]; rate 0.25 kg/ha): 0.0 | Preemergence herbicidal rating AMBEL ([15]; rate 0.125 kg/ha): 7.0 | Preemergence herbicidal rating AMBEL ([15]; rate 0.25 kg/ha): 8.0 | Preemergence herbicidal rating CHEAL ([16]; rate 0.125 kg/ha): 9.0 | Preemergence herbicidal rating CHEAL ([16]; rate 0.25 kg/ha): 9.0 | Preemergence herbicidal rating DIGSA ([17]; rate 0.125 kg/ha): 4.0 | Preemergence herbicidal rating DIGSA ([17]; rate 0.25 kg/ha): 6.0 | Preemergence herbicidal rating ECHCG ([18]; rate 0.125 kg/ha): 3.0 | Preemergence herbicidal rating ECHCG ([18]; rate 0.25 kg/ha): 3.0 | Preemergence herbicidal rating GLXMA ([19]; rate 0.125 kg/ha): 0.0 | Preemergence herbicidal rating GLXMA ([19]; rate 0.25 kg/ha): 0.0 | Preemergence herbicidal rating IPOHE ([20]; rate 0.125 kg/ha): 0.0 | Preemergence herbicidal rating IPOHE ([20]; rate 0.25 kg/ha): 1.0 | Preemergence herbicidal rating SETVI ([21]; rate 0.125 kg/ha): 2.0 | Preemergence herbicidal rating SETVI ([21]; rate 0.25 kg/ha): 3.0 | Preemergence herbicidal rating TRZAW ([22]; rate 0.125 kg/ha): 0.0 | Preemergence herbicidal rating TRZAW ([22]; rate 0.25 kg/ha): 0.0 | Preemergence herbicidal rating XANST ([23]; rate 0.125 kg/ha): 1.0 | Preemergence herbicidal rating XANST ([23]; rate 0.25 kg/ha): 3.0 | Preemergence herbicidal rating ZEAMX ([24]; rate 0.125 kg/ha): 0.0 | Preemergence herbicidal rating ZEAMX ([24]; rate 0.25 kg/ha): 0.0
